The melting point is the temperature, or range, at which the solid turns liquid.

The compound `N#Cc1c(Cl)c2cc(Cl)ccc2n(Cc2ccccc2)c1=O` yielded a melting point of 243 °C.

`CC(=O)c1ccc2c(c1)C(=O)C=C(C)C2=O` registered a melting point of 126 °C.

On to `COc1cccc(CNC(=O)c2nc3scc(C(=O)NCc4ccc(C(=O)O)cc4)c3c(=O)[nH]2)c1`, for which the melting point fell in the range of 254 to 255 °C. With `COc1cc(OC)cc(C(=O)Nc2ccc3ccc(Cl)nc3n2)c1`, the melting point came out at 235 °C.

In turn, `CCOc1c([C@@H]2C[C@@H]2/C=C/C(C)=C/C(=O)O)cc(C(C)(C)C)cc1C(C)(C)C` (racemic) came in with a melting point of 169 to 174 °C. In the case of `CC(CO)(Cc1c[nH]c2ccccc12)NC(=O)OC1C2CC3CC(C2)CC1C3` (centres undefined), the melting point was in the range of 72 to 74 °C. Compound `OCc1ccc(-c2nn(Cc3ccccc3)c3ccccc23)cc1` showed a melting point of 110 to 112 °C. `COC(=O)C1=C(O)c2cc(OC)ccc2S(=O)(=O)N1` returned a melting point of 183 °C.

In turn, `CCOC(=O)c1ccc(O)nc1` returned a melting point of 143 to 144 °C.

In turn, `CC(C)CC(CC(=O)NO)C(=O)N[C@H]1Cc2cn(c3ccccc23)CCCCCCCNC1=O` (some centres undefined) showed a melting point of 197 to 201 °C.

In turn, `COc1ccc2ccc(N3C(=O)c4ccccc4C3NCCCN(C)C)nc2n1` (centres undefined) displayed a melting point of 128 °C. Next, `CCN(CC)CCNc1ccc(-c2ccnc(Nc3cc(OC)c(OC)c(OC)c3)n2)cn1`: 67 °C; `CC(C)n1c(=S)nc(-c2ccccc2)c2cc3c(cc21)OCO3`: 202 to 205 °C.

On to `O=P(O)(O)c1cccc(Br)c1`, for which the melting point lay in the range of 144 to 149 °C. Next, `COc1cccc(COC(=O)c2ncn3c2[C@@H]2CCN2C(=O)c2c(Cl)cccc2-3)c1`: 126 to 127 °C; `COc1cc(C)c(CC(=O)O)cc1C(C)C`: 107 to 109 °C; `COC(=O)CCC(=O)Oc1c(C)n(Cc2ccccc2)c2c(OCc3ccccc3)nncc12`: 189 to 190 °C.

Regarding `CCOC(=O)c1c[nH]nc1-c1ccc(Cl)cc1`, the melting point was in the range of 95 to 100 °C. In the case of `O=c1cc(-c2ccccc2)oc2cc(OCC(O)CCCOC3CCCCO3)ccc12` (centres undefined) it was 110 to 112 °C; in that of `O=C1C=C[C@H]2N1CCN1C(=O)C[C@H]3CCCC[C@@]321` (relative stereo), 159 to 162 °C; in that of `Cc1oc(-c2ccc(-c3ccc(-c4nc(CCO)c(C)o4)cc3)cc2)nc1CCO`, 134 to 135 °C. Next, `CCOC(=O)c1cnn(C)c1C(=O)Nc1ccc2nc(N3CCOCC3)nn2c1`: 234 °C; `O=S(=O)(Nc1cccc(Nc2nc(NC3CCCC3)c3nc[nH]c3n2)c1)C(F)(F)F`: 243 to 246 °C.

`CSC(=S)C1(c2cccc(C)n2)CCCS1` (centres undefined) returned a melting point of 80 °C.

`O=c1c(Cl)c(S(=O)(=O)Cc2ccccc2)cnn1-c1ccccc1`: the melting point lay within 154 to 156 °C. On to `CCCCCCCCCC(CCCCCCCCC)N1C(=O)c2ccc3c4cccc5cccc(c6ccc(c2c36)C1=O)c54`, for which the melting point lay within 143 to 144 °C. In the case of `COC(=O)CC1NC(=O)c2ccccc21` (centres undefined) it was 136 to 138 °C. Next, `CCCn1cc2c(C3C(=O)Nc4ccc(Br)cc43)nc(NC3CCNC3)nc2n1` (centres undefined): 315 to 320 °C; `Brc1ccc(C2(c3ccccc3)OCCO2)cc1`: 54 to 56 °C.

On to `O=C1CSC(=S)N1N=c1sc2ccc(C(F)(F)F)cc2s1`, for which the melting point was in the range of 285 to 288 °C. `CCOC(=O)c1cccc(-n2nc(C(=O)OCC)c3csc(N)c3c2=O)c1`: the melting point lay within 159 to 160 °C. In the case of `CC(=O)c1ccc(-c2ccc(C(=O)Nc3ccc4cc(CN5CCCC5)cnc4c3C)cc2)s1` it was 194 to 195 °C; in that of `C#CCOCC(C)(COCC#C)NC(=O)C(Oc1ccc2ncc(C#C)cc2c1)SC` (centres undefined), 95 to 100 °C. On to `C=CCc1cc(Cc2cnc(N)nc2N)c2ccc(C)nc2c1OC`, for which the melting point lay in the range of 219 to 222 °C.

The values are drawn from a melting point compilation (Tetko et al.; mined from patent text by program, amines drawn as free bases though some values may be those of a salt).
